Laboratory results: publication PMC10041521, “Fluorescent Activity-Based Probe To Image and Inhibit Factor XIa Activity in Human Plasma” (Journal of Medicinal Chemistry, 2023)
Several values for one entry are separate records, joined by “and”; a condition that tells them apart may be missing. Equal values may be shown once.

Columns and labels:
Format in all cases: biochemical
fXIa [1] = target: T1, fXIa (Homo sapiens, UniProt P03951); experiment: Inhibition kinetics (kobs/I) of inhibitor and fluorescent ABP; parameters: complete conversion of the single chain zymogen to the two-chain active form; made in house; host or cells: HEK293 cells expressing EBNA (pCEP4 vector); details: pseudo-first-order, ABP/inhibitor 308 nM to 50 μM, 10 nM enzyme, substrate 100 μM SMX1, 37 °C, 30 min, corrected for substrate KM; mean ± s.d., n = 3; SD
T1 sequence (P03951 388-625 limits assumed): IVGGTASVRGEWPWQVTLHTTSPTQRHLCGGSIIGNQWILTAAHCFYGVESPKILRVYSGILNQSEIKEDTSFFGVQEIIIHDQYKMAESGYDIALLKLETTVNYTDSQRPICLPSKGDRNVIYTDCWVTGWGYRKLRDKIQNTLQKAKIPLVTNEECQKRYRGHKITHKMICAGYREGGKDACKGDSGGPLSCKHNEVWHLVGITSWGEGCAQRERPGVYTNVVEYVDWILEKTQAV
T1 sequence (P03951 19-387 partner limits assumed): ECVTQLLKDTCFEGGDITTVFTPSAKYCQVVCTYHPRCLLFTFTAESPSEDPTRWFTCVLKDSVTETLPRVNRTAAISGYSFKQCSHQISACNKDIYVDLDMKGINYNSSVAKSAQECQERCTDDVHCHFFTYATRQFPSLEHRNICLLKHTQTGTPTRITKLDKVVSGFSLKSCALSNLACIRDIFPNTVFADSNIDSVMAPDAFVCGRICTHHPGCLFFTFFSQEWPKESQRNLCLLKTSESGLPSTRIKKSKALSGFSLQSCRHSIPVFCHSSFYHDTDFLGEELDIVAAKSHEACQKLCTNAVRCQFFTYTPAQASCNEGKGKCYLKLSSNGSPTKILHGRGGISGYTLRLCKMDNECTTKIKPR
Experimental: (§1) All kinetic assays were performed using a spectrofluorometer (Molecular Devices SpectraMax Gemini XPS) on 96-well, white, flat bottom, nontreated plates (Corning). The parameters were as follows: excitation/emission wavelength, 355/460 nm (cutoff, 455 nm); varying concentrations of substrates, ABPs, inhibitor, and enzymes. The assay buffer (20 mM Tris-base, 150 mM NaCl, 5 mM CaCl2, pH 7.4) was prepared at room temperature, and the enzyme kinetic studies were performed at 37 °C. All enzymes were preincubated in assay buffer for 15 min at 37 °C before addition to the wells. Each assay was repeated at least twice, and the data represent the average of these repetitions. The obtained results were analyzed using SoftMax (Molecular Devices), GraphPad Prism, and Microsoft Excel software.
(§2) The kobs/I parameters for APC, thrombin, fXa, and fXIa were measured under pseudo-first-order conditions. Inhibitor and ABP were serially diluted in assay buffer until the seventh well to obtain concentrations ranging from 308 nM to 50 μM. […] Next, 60 μL of APC, thrombin, fXa, or fXIa (at a concentration of 10 nM) preincubated at 37 °C was added, and the fluorescence increase over time was measured (λex = 355 nm, λem = 460 nm) for 30 min. The kobs/I parameters were calculated in GraphPad Prism and Microsoft Excel software.[41]

fXa = target: T2, fXa (Homo sapiens, UniProt P00742); experiment: as above; details: pseudo-first-order, ABP/inhibitor 308 nM to 50 μM, 10 nM enzyme, substrate 50 μM SMII18, 37 °C, 30 min; mean ± s.d., n = 3; SD
T2 construct: from tissue; host or cells: fresh frozen plasma
T2 sequence (P00742 235-488 limits assumed): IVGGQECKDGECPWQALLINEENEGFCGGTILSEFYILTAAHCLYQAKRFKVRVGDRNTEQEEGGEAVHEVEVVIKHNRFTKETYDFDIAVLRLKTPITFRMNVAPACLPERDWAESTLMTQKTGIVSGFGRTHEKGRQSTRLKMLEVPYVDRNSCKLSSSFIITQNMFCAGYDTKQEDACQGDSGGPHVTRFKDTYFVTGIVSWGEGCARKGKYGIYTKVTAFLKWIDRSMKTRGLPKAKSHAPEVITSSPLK
T2 sequence (P00742 41-179 partner limits assumed): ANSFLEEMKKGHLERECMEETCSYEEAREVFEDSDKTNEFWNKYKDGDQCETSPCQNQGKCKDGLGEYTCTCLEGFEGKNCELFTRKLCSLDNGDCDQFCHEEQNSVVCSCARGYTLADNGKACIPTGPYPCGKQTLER
Experimental: (§3) Protein C, factor X, and prothrombin were purified from fresh frozen plasma and then activated as previously described.[33]
as §1
as §2, with “conditions.” for “conditions. Inhibitor and ABP were serially diluted in assay buffer until the seventh well to obtain concentrations ranging from 308 nM to 50 μM.”

APC = target: T3, APC (Homo sapiens, UniProt P04070); experiment: as above; details: pseudo-first-order, ABP/inhibitor 308 nM to 50 μM, 10 nM enzyme, substrate 154 μM SMA5, 37 °C, 30 min; mean ± s.d., n = 3; SD
T3 construct: from tissue; host or cells: fresh frozen plasma
T3 sequence (P04070 212-461 limits assumed): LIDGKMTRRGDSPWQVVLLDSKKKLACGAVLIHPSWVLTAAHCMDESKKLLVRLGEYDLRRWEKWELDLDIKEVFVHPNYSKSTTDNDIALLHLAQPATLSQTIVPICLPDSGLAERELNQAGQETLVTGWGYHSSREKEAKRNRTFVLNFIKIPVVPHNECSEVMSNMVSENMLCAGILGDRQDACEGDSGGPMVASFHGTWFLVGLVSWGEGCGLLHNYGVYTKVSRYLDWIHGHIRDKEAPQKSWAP
T3 sequence (P04070 43-197 partner limits assumed): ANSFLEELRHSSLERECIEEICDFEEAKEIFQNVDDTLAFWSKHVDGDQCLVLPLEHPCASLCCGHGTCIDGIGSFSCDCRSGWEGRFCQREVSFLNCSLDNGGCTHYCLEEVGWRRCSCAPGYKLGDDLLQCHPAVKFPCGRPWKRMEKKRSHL
Experimental: as §3, §1
as §2, with “conditions.” for “conditions. Inhibitor and ABP were serially diluted in assay buffer until the seventh well to obtain concentrations ranging from 308 nM to 50 μM.”

fXIa [2] = target: T1, fXIa; experiment: Labeling of purified coagulation factors with ABPs, SDS-PAGE and blot; parameters: complete conversion of the single chain zymogen to the two-chain active form; made in house; host or cells: HEK293 cells expressing EBNA (pCEP4 vector); details: 200 nM fXIa preincubated with 5 μM inhibitor for 60 min, then probe 1:1, 30 min
Experimental: To determine biotin-labeled ABPs selectivity, four purified coagulation factors (APC, thrombin, fXa, and fXIa) with a constant concentration of 200 nM were incubated separately with each probe (the probe/enzyme ratio was 1) in assay buffer for 30 min at 37 °C. Each enzyme was incubated with each probe in a volume of 40 μL followed by reduction with 20 μL of 3 × SDS/DTT for 5 min at 95 °C. The first well was loaded with 0.5 μL of the protein marker PageRuler Prestained Protein Ladder (Thermo Scientific), and then 10 μL of each sample was run on a 12% (w/v) 15-well gel. SDS–PAGE separation was performed at 200 V for 39 min followed by a wet tank transfer to a nitrocellulose membrane (0.2 μm, Bio-Rad) at 10 V for 60 min. The membrane was blocked with 2.5% BSA in TBS-T (Tris-buffered saline with 0.1% (v/v) Tween 20) for 60 min at room temperature. Next, the membrane was incubated with fluorescent streptavidin Alexa Fluor 647 conjugate (dilution 1:10,000 in TBS-T with 1% BSA) for 60 min. The biotin-labeled ABPs were detected at 658 nm using an Azure Biosystems Sapphire Biomolecular Imager and Azure Spot Analysis software.
For fluorescently labeled probe sample preparation, electrophoresis and membrane transfer were performed as described above. When testing the inhibitor utility, 200 nM fXIa was incubated with inhibitor (final inhibitor concentration 5 μM) for 60 min prior to probe addition. After the membrane was blocked with 2.5% BSA in TBS-T (60 min), the labeled proteins were directly imaged with a […] laser using an Azure Biosystems Sapphire Biomolecular Imager and Azure Spot Analysis software.

Which “kobs/I fXIa” value (fXIa [1]) does the source give for “Ac-Tyr(2,6-Cl2-Z)-Nle-Glu(Bzl)-ArgP(OPh)2 [I-SMXI5]” here?
The value was 54,700 ± 2,800 M^-1 s^-1 and 54,700 ± 2800 M^-1 s^-1.

And the “kobs/I fXa” value (fXa)?
Its value is 100 ± 13 M⁻¹ s⁻¹.

What about the “kobs/I APC” value (APC) of the same substance?
The value was 1,570 ± 20 M^-1 s^-1.

What about the “effect of preblocking fXIa on P-SMXI52 labeling” value (fXIa [2]) of the same substance?
The value was “completely inhibited the fluorescent signal”.
